Results: the supplement of paper PMC10307832

What was measured:
Assay in all cases: relative viability (nuclei count vs DMSO), 5 days (fraction); higher = more cells survive
A-427 = tested on: A-427
In short: (§1)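 Lung cancer cell lines in 1536-well plates got either a single drug or a fixed anchor-drug dose together with five library-drug doses (not always all listed) in √10 steps, by pin tool, on the day after seeding. Nuclei were counted after 5 days, and relative viability is the treated-to-vehicle ratio of nuclei counts. Values are medians of duplicate plates.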

COR-L 105 = tested on: COR-L 105
In short: as §1

EKVX = tested on: EKVX
In short: as §1

EMC-BAC-2 = tested on: EMC-BAC-2
In short: as §1

EPLC-272H = tested on: EPLC-272H
In short: as §1

HARA = tested on: HARA
In short: as §1

HCC-44 = tested on: HCC-44
In short: as §1

LK-2 = tested on: LK-2
In short: as §1

LU99A = tested on: LU99A
In short: as §1

NCI-H1650 = tested on: NCI-H1650
In short: as §1

NCI-H1734 = tested on: NCI-H1734
In short: as §1

NCI-H1755 = tested on: NCI-H1755
In short: as §1

NCI-H1792 = tested on: NCI-H1792
In short: as §1

NCI-H1993 = tested on: NCI-H1993
In short: as §1

NCI-H2405 = tested on: NCI-H2405
In short: as §1

NCI-H358 = tested on: NCI-H358
In short: as §1

NCI-H460 = tested on: NCI-H460
In short: as §1

NCI-H596 = tested on: NCI-H596
In short: as §1

NCI-H647 = tested on: NCI-H647
In short: as §1

RERF-LC-KJ = tested on: RERF-LC-KJ
In short: as §1

Cc1csc(=NC2CCCCC2)n1/N=C/c1ccc(O)c(O)c1O [MIM1] + CS(=O)(=O)CCNCc1ccc(-c2ccc3ncnc(Nc4ccc(OCc5cccc(F)c5)c(Cl)c4)c3c2)o1 [Lapatinib] (partner 2 µM)
relative viability (A-427; first compound 0.2 µM): 1.05
relative viability (A-427; first compound 0.6325 µM): 1.05
relative viability (A-427; first compound 2 µM): 0.868
relative viability (A-427; first compound 6.325 µM): 0.841
relative viability (A-427; first compound 20 µM): 0.265
relative viability (COR-L 105; first compound 0.2 µM): 0.371
relative viability (COR-L 105; first compound 0.6325 µM): 0.331
relative viability (COR-L 105; first compound 2 µM): 0.373
relative viability (COR-L 105; first compound 6.325 µM): 0.319
relative viability (COR-L 105; first compound 20 µM): 0.294
relative viability (EKVX; first compound 0.2 µM): 0.186
relative viability (EKVX; first compound 0.6325 µM): 0.221
relative viability (EKVX; first compound 2 µM): 0.179
relative viability (EKVX; first compound 6.325 µM): 0.177
relative viability (EKVX; first compound 20 µM): 0.178
relative viability (EMC-BAC-2; first compound 0.2 µM): 0.861
relative viability (EMC-BAC-2; first compound 0.6325 µM): 0.713
relative viability (EMC-BAC-2; first compound 2 µM): 0.869
relative viability (EMC-BAC-2; first compound 6.325 µM): 0.828
relative viability (EMC-BAC-2; first compound 20 µM): 0.212
relative viability (EPLC-272H; first compound 0.2 µM): 0.884
relative viability (EPLC-272H; first compound 0.6325 µM): 0.886
relative viability (EPLC-272H; first compound 2 µM): 0.722
relative viability (EPLC-272H; first compound 6.325 µM): 0.792
relative viability (EPLC-272H; first compound 20 µM): 0.528
relative viability (HARA; first compound 0.2 µM): 0.615
relative viability (HARA; first compound 0.6325 µM): 0.662
relative viability (HARA; first compound 2 µM): 0.821
relative viability (HARA; first compound 6.325 µM): 0.55
relative viability (HARA; first compound 20 µM): 0.128
relative viability (HCC-44; first compound 0.2 µM): 1.07
relative viability (HCC-44; first compound 0.6325 µM): 0.969
relative viability (HCC-44; first compound 2 µM): 0.798
relative viability (HCC-44; first compound 6.325 µM): 0.346
relative viability (HCC-44; first compound 20 µM): 0.128
relative viability (LK-2; first compound 0.2 µM): 0.911
relative viability (LK-2; first compound 0.6325 µM): 0.881
relative viability (LK-2; first compound 2 µM): 0.697
relative viability (LK-2; first compound 6.325 µM): 0.835
relative viability (LK-2; first compound 20 µM): 0.268
relative viability (LU99A; first compound 0.2 µM): 1.08
relative viability (LU99A; first compound 0.6325 µM): 0.894
relative viability (LU99A; first compound 2 µM): 0.779
relative viability (LU99A; first compound 6.325 µM): 0.915
relative viability (LU99A; first compound 20 µM): 0.282
relative viability (NCI-H1650; first compound 0.2 µM): 0.788
relative viability (NCI-H1650; first compound 0.6325 µM): 0.566
relative viability (NCI-H1650; first compound 2 µM): 0.565
relative viability (NCI-H1650; first compound 6.325 µM): 0.204
relative viability (NCI-H1650; first compound 20 µM): 0.148
relative viability (NCI-H1734; first compound 0.2 µM): 1.18
relative viability (NCI-H1734; first compound 0.6325 µM): 0.874
relative viability (NCI-H1734; first compound 2 µM): 0.971
relative viability (NCI-H1734; first compound 6.325 µM): 0.823
relative viability (NCI-H1734; first compound 20 µM): 0.198
relative viability (NCI-H1755; first compound 0.2 µM): 1.04
relative viability (NCI-H1755; first compound 0.6325 µM): 0.973
relative viability (NCI-H1755; first compound 2 µM): 1.03
relative viability (NCI-H1755; first compound 6.325 µM): 0.722
relative viability (NCI-H1755; first compound 20 µM): 0.251
relative viability (NCI-H1792; first compound 0.2 µM): 0.861
relative viability (NCI-H1792; first compound 0.6325 µM): 0.897
relative viability (NCI-H1792; first compound 2 µM): 0.983
relative viability (NCI-H1792; first compound 6.325 µM): 0.527
relative viability (NCI-H1792; first compound 20 µM): 0.294
relative viability (NCI-H1993; first compound 0.2 µM): 0.875
relative viability (NCI-H1993; first compound 0.6325 µM): 0.871
relative viability (NCI-H1993; first compound 2 µM): 0.735
relative viability (NCI-H1993; first compound 6.325 µM): 0.87
relative viability (NCI-H1993; first compound 20 µM): 0.541
relative viability (NCI-H2405; first compound 0.2 µM): 1.13
relative viability (NCI-H2405; first compound 0.6325 µM): 1.09
relative viability (NCI-H2405; first compound 2 µM): 1.12
relative viability (NCI-H2405; first compound 6.325 µM): 0.854
relative viability (NCI-H2405; first compound 20 µM): 0.606
relative viability (NCI-H358; first compound 0.2 µM): 0.506
relative viability (NCI-H358; first compound 0.6325 µM): 0.475
relative viability (NCI-H358; first compound 2 µM): 0.433
relative viability (NCI-H358; first compound 6.325 µM): 0.36
relative viability (NCI-H358; first compound 20 µM): 0.303
relative viability (NCI-H460; first compound 0.2 µM): 0.889
relative viability (NCI-H460; first compound 0.6325 µM): 1.01
relative viability (NCI-H460; first compound 2 µM): 0.351
relative viability (NCI-H460; first compound 6.325 µM): 0.256
relative viability (NCI-H460; first compound 20 µM): 0.0216
relative viability (NCI-H596; first compound 0.2 µM): 1.13
relative viability (NCI-H596; first compound 0.6325 µM): 1.16
relative viability (NCI-H596; first compound 2 µM): 1.07
relative viability (NCI-H596; first compound 6.325 µM): 0.932
relative viability (NCI-H596; first compound 20 µM): 0.733
relative viability (NCI-H647; first compound 0.2 µM): 1.03
relative viability (NCI-H647; first compound 0.6325 µM): 1.04
relative viability (NCI-H647; first compound 2 µM): 1.02
relative viability (NCI-H647; first compound 6.325 µM): 0.633
relative viability (NCI-H647; first compound 20 µM): 0.104
relative viability (RERF-LC-KJ; first compound 0.2 µM): 0.769
relative viability (RERF-LC-KJ; first compound 0.6325 µM): 0.772
relative viability (RERF-LC-KJ; first compound 2 µM): 0.795
relative viability (RERF-LC-KJ; first compound 6.325 µM): 0.75
relative viability (RERF-LC-KJ; first compound 20 µM): 0.3

CN1CCN(CCOc2cc(OC3CCOCC3)c3c(Nc4c(Cl)ccc5c4OCO5)ncnc3c2)CC1 [Saracatinib] + CS(=O)(=O)CCNCc1ccc(-c2ccc3ncnc(Nc4ccc(OCc5cccc(F)c5)c(Cl)c4)c3c2)o1 [Lapatinib] (partner 2 µM)
relative viability (A-427; first compound 0.02 µM): 0.921
relative viability (A-427; first compound 0.2 µM): 0.877
relative viability (A-427; first compound 0.6325 µM): 1.07
relative viability (A-427; first compound 2 µM): 1.04
relative viability (COR-L 105; first compound 0.02 µM): 0.389
relative viability (COR-L 105; first compound 0.2 µM): 0.281
relative viability (COR-L 105; first compound 0.6325 µM): 0.311
relative viability (COR-L 105; first compound 2 µM): 0.279
relative viability (EKVX; first compound 0.02 µM): 0.222
relative viability (EKVX; first compound 0.2 µM): 0.165
relative viability (EKVX; first compound 0.6325 µM): 0.238
relative viability (EKVX; first compound 2 µM): 0.131
relative viability (EMC-BAC-2; first compound 0.02 µM): 0.91
relative viability (EMC-BAC-2; first compound 0.2 µM): 0.792
relative viability (EMC-BAC-2; first compound 0.6325 µM): 0.945
relative viability (EMC-BAC-2; first compound 2 µM): 0.761
relative viability (EPLC-272H; first compound 0.02 µM): 1.01
relative viability (EPLC-272H; first compound 0.2 µM): 0.806
relative viability (EPLC-272H; first compound 0.6325 µM): 1.05
relative viability (EPLC-272H; first compound 2 µM): 0.893
relative viability (HARA; first compound 0.02 µM): 0.808
relative viability (HARA; first compound 0.6325 µM): 1.1
relative viability (HARA; first compound 2 µM): 0.442
relative viability (HCC-44; first compound 0.02 µM): 1.01
relative viability (HCC-44; first compound 0.2 µM): 0.902
relative viability (HCC-44; first compound 0.6325 µM): 1.17
relative viability (HCC-44; first compound 2 µM): 1.15
relative viability (LK-2; first compound 0.02 µM): 0.95
relative viability (LK-2; first compound 0.2 µM): 0.715
relative viability (LK-2; first compound 0.6325 µM): 0.725
relative viability (LK-2; first compound 2 µM): 0.504
relative viability (LU99A; first compound 0.02 µM): 0.963
relative viability (LU99A; first compound 0.2 µM): 0.748
relative viability (LU99A; first compound 0.6325 µM): 0.969
relative viability (LU99A; first compound 2 µM): 0.743
relative viability (NCI-H1650; first compound 0.02 µM): 0.779
relative viability (NCI-H1650; first compound 0.2 µM): 0.803
relative viability (NCI-H1650; first compound 0.6325 µM): 0.573
relative viability (NCI-H1650; first compound 2 µM): 0.47
relative viability (NCI-H1734; first compound 0.02 µM): 1.11
relative viability (NCI-H1734; first compound 0.6325 µM): 0.999
relative viability (NCI-H1734; first compound 2 µM): 0.777
relative viability (NCI-H1755; first compound 0.02 µM): 1.01
relative viability (NCI-H1755; first compound 0.2 µM): 0.816
relative viability (NCI-H1755; first compound 0.6325 µM): 1.1
relative viability (NCI-H1755; first compound 2 µM): 0.965
relative viability (NCI-H1792; first compound 0.02 µM): 0.968
relative viability (NCI-H1792; first compound 0.2 µM): 0.778
relative viability (NCI-H1792; first compound 0.6325 µM): 1.05
relative viability (NCI-H1792; first compound 2 µM): 0.849
relative viability (NCI-H1993; first compound 0.02 µM): 0.864
relative viability (NCI-H1993; first compound 0.2 µM): 0.737
relative viability (NCI-H1993; first compound 2 µM): 0.691
relative viability (NCI-H2405; first compound 0.02 µM): 1.03
relative viability (NCI-H2405; first compound 0.2 µM): 0.966
relative viability (NCI-H2405; first compound 0.6325 µM): 0.984
relative viability (NCI-H2405; first compound 2 µM): 0.511
relative viability (NCI-H358; first compound 0.02 µM): 0.471
relative viability (NCI-H358; first compound 0.2 µM): 0.535
relative viability (NCI-H358; first compound 0.6325 µM): 0.418
relative viability (NCI-H358; first compound 2 µM): 0.384
relative viability (NCI-H460; first compound 0.02 µM): 0.886
relative viability (NCI-H460; first compound 0.2 µM): 0.682
relative viability (NCI-H460; first compound 0.6325 µM): 0.799
relative viability (NCI-H460; first compound 2 µM): 1.05
relative viability (NCI-H596; first compound 0.02 µM): 1.02
relative viability (NCI-H596; first compound 0.2 µM): 1.03
relative viability (NCI-H596; first compound 0.6325 µM): 0.994
relative viability (NCI-H596; first compound 2 µM): 0.796
relative viability (NCI-H647; first compound 0.02 µM): 0.76
relative viability (NCI-H647; first compound 0.2 µM): 0.803
relative viability (NCI-H647; first compound 0.6325 µM): 0.894
relative viability (NCI-H647; first compound 2 µM): 0.48
relative viability (RERF-LC-KJ; first compound 0.02 µM): 0.893
relative viability (RERF-LC-KJ; first compound 0.2 µM): 0.82
relative viability (RERF-LC-KJ; first compound 0.6325 µM): 0.881
relative viability (RERF-LC-KJ; first compound 2 µM): 1.02
